# Earlier results, collected in patent US20140072530A1, “TREATMENT OF HIV” (priority 2006, published 2014).
# Assays:
# [1] = system: whole blood samples stimulated with LPS; conditions: LPS-stimulated whole blood of HIV patients; concentration-dependent
# [2] = system: normal peripheral blood mononuclear cells (PBMC); conditions: induced by HIV envelope glycoprotein gp 120, normal PBMC
Substance,production of IL-1 [1],production of TNF-α [1],production of IL-1β [2],production of TNF-α [2]
"ACTH (1-24): Melanocortin peptide, fragment 1-24 of adrenocorticotropic hormone (SYSMEHFRWGKPVGKKRRPVKVYP; Corticotropin; UniProt P01189 138-161, looked up, fragment)",reduced,reduced,–,–
"adrenocorticotropic hormone [ACTH (1-39] (SYSMEHFRWGKPVGKKRRPVKVYPNGAEDESAEAFPLEF; Corticotropin; UniProt P01189 138-176, looked up) [ACTH (1-39), Proopiomelanocortin-derived melanocortin peptide]",reduced,reduced,–,–
"α-melanocyte-stimulating hormone [α-MSH (1-13), α-melanocyte-stimulating hormone [α-MSH (1-13)]]",reduced,reduced,inhibit,inhibit
